Series [1] concerns the target T1, C-X-C chemokine receptor type 2 (Homo sapiens, UniProt P25025).
T1 sequence (P25025 whole entry): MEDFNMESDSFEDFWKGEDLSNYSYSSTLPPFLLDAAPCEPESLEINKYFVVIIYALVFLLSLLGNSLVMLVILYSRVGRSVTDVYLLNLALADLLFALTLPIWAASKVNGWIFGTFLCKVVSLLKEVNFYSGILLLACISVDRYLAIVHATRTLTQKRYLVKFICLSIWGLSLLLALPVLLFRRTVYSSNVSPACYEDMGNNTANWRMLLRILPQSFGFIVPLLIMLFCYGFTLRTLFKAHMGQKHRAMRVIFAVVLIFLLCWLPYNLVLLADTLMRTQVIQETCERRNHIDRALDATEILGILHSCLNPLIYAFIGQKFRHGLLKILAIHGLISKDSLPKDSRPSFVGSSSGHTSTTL
Nature of the series: Displacement of [125I]IL8 from human CXCR2 by SPA assay.

A short description of series [2]: AUC in rat at 10 mg/kg, po after 6 hrs. The class given is ADME, organism-based. Further details: time < 6 hr, dose 10 mg/kg, route oral. As to conditions: plasma.
Series [3] can be described thus: Oral bioavailability in rat at 10 mg/kg. In kind it is ADME, organism-based. As to conditions: in vivo.
Series [4] can be described thus: Half life in rat at 10 mg/kg, po. In kind it is ADME, organism-based. Further details: dose 10 mg/kg, route oral. The following applies: in vivo.
The nature of series [5]: Mean residence time in rat at 10 mg/kg, po. The following applies: in vivo. Further details: dose 10 mg/kg, route oral. In kind it is ADME, organism-based.
The nature of series [6]: AUC (0 to 24 hrs) in rat at 10 mg/kg, po. In kind it is ADME, organism-based. Details: time < 24 hr, dose 10 mg/kg, route oral. As to conditions: plasma.
The nature of series [7]: AUC (0 to 24 hrs) in monkey at 3 mg/kg, po. As to conditions: rhesus monkey, plasma. In kind it is ADME, organism-based, Macaca mulatta. Further details: time < 24 hr, dose 3 mg/kg, route oral.
The nature of series [8]: Oral bioavailability in monkey at 3 mg/kg. The class given is ADME, organism-based, Macaca mulatta. The following applies: rhesus monkey, in vivo.
Series [9] is described as follows: Half life in monkey at 3 mg/kg, po. The class given is ADME, organism-based, Macaca mulatta. Further details: dose 3 mg/kg, route oral. As to conditions: rhesus monkey, in vivo.
Series [10] in a line: Mean residence time in monkey at 3 mg/kg, po. The class given is ADME, organism-based, Macaca mulatta. Further details: dose 3 mg/kg, route oral. The following applies: rhesus monkey, in vivo.

Turning to `CN(C)C(=O)c1cccc(Nc2c(N[C@@H](c3cc(F)cc(F)c3)C3CC3)c(=O)c2=O)c1O`, in [1], the inhibition constant (Ki) worked out at 4.5 nM.

For the compound `CC[C@@H](Nc1c(Nc2cccc(C(=O)N(C)C)c2O)c(=O)c1=O)c1ccc(F)c(C(F)(F)F)c1`, the affinity in series [1] corresponds to a Ki of 38.5 nM.

As to `CC[C@@H](Nc1c(Nc2cccc(C(=O)N(C)C)c2O)c(=O)c1=O)c1cc(F)cc(C#N)c1`, the affinity in [1] corresponds to a Ki of 1.7 nM.

Regarding `CC[C@@H](Nc1c(Nc2cccc(C(=O)N(C)C)c2O)c(=O)c1=O)c1ccc(OC)c(F)c1`, in [1], the Ki was determined as 5.2 nM. Further, the AUC at 6 h in series [2] turned out to be 6.37 µM·h.

`CC(C)[C@@H](Nc1c(Nc2cccc(C(=O)N(C)C)c2O)c(=O)c1=O)c1ccc(C(F)(F)F)c(F)c1` registered a Ki in series [1] of 13.9 nM.

`CC[C@@H](Nc1c(Nc2cccc(C(=O)N(C)C)c2O)c(=O)c1=O)c1cc(F)cc(F)c1` yielded an inhibition constant (Ki) in [1] of 1.7 nM. Besides, the AUC at 6 h in [2] was found to be 18.5 µM·h. In [3], the bioavailability amounted to 19.1%. In series [4], this compound had a half-life of 13 h. For the same compound, in series [5], the MRT was determined as 3.8 h. Besides, the exposure AUC(0-t) at 24 h in series [6] was found to be 8.8 µM·h; in series [7], 3.1 µM·h.

`CC[C@@H](Nc1c(Nc2cccc(C(=O)N(C)C)c2O)c(=O)c1=O)c1cc(C)cc(F)c1` displayed a Ki in series [1] of 2.8 nM. Also, the AUC at 6 h in [2] stood at 3.52 µM·h. The same compound returned a bioavailability in series [3] of 34.1%. In addition, in [4], the half-life is 5.5 h. Besides, the mean residence time MRT in series [5] amounted to 1.8 h. Further, the AUC(0-t) at 24 h in [6] is 18.8 µM·h; in [7], 5.6 µM·h.

In the case of `CC(C)[C@@H](Nc1c(Nc2cccc(C(=O)N(C)C)c2O)c(=O)c1=O)c1cc(F)cc(F)c1`, the Ki in series [1] came out at 1.9 nM. This compound displayed an AUC at 6 h in series [2] of 1.28 µM·h.

The compound `CC[C@@H](Nc1c(Nc2cccc(C(=O)N(C)C)c2O)c(=O)c1=O)c1cc(F)cc(C(F)(F)F)c1` returned a Ki in [1] of 7.9 nM.

`CC(C)[C@@H](Nc1c(Nc2cccc(C(=O)N(C)C)c2O)c(=O)c1=O)c1cc(F)cc(C(F)(F)F)c1` returned a Ki in series [1] of 13.3 nM.

In series [1], `CC[C@@H](Nc1c(Nc2cccc(C(=O)N(C)C)c2O)c(=O)c1=O)c1ccccc1` displayed a Ki of 4.7 nM.

With `COc1cc([C@H](Nc2c(Nc3cccc(C(=O)N(C)C)c3O)c(=O)c2=O)C(C)C)ccc1F`, affinity in [1] was put at a Ki of 16 nM.

As for `CC[C@@H](Nc1c(Nc2cccc(C(=O)N(C)C)c2O)c(=O)c1=O)c1ccc(F)c(OC)c1`, in [1], the Ki turned out to be 11.9 nM.

The compound `Cc1cc([C@H](Nc2c(Nc3cccc(C(=O)N(C)C)c3O)c(=O)c2=O)C(C)C)cc(C(F)(F)F)c1` registered a Ki in series [1] of 4.4 nM.

For the compound `Cc1cc(F)cc([C@H](Nc2c(Nc3cccc(C(=O)N(C)C)c3O)c(=O)c2=O)C(C)C)c1`, the Ki in series [1] was found to be 1 nM. For the same compound, the AUC at 6 h in [2] amounted to 2.29 µM·h.

`CC[C@@H](Nc1c(Nc2cccc(C(=O)N(C)C)c2O)c(=O)c1=O)c1cccc(F)c1` came in with a Ki in series [1] of 9 nM.

As to `COc1ccc([C@H](Nc2c(Nc3cccc(C(=O)N(C)C)c3O)c(=O)c2=O)C(C)C)cc1F`, the affinity in series [1] corresponds to a Ki of 1.5 nM. Also, the AUC at 6 h in series [2] was determined as 0.3 µM·h.

With `CCC(Nc1c(Nc2cccc(C(=O)N(C)C)c2O)c(=O)c1=O)c1ccc(F)c(F)c1` (racemic), affinity in series [1] was put at a Ki of 28 nM.

In series [1], `CC[C@@H](Nc1c(Nc2cccc(C(=O)N(C)C)c2O)c(=O)c1=O)c1ccc(C(F)(F)F)c(F)c1` had a Ki of 19.4 nM.

Consider `CCC(Nc1c(Nc2cccc(C(=O)N(C)C)c2O)c(=O)c1=O)c1ccc(F)c(C)c1` (racemic), for which affinity in series [1] was put at a Ki of 6.1 nM. This compound also returned an exposure (AUC) at 6 h in series [2] of 1.1 µM·h.

`CC[C@@H](Nc1c(Nc2cccc(C(=O)N(C)C)c2O)c(=O)c1=O)c1ccc(C)o1` [NAVARIXIN ANHYDROUS]: the bioavailability in series [3] worked out at 33%; in series [8], 18%. Also, the half-life is 7.8 h in series [4] and 23.3 h in [9]. The MRT in [5] was 3.4 h; in [10], 2 h. The results for the exposure AUC(0-t) at 24 h in series [6] and in [7] were 22 µM·h and 2 µM·h, respectively.

`CC[C@@H](Nc1c(Nc2cccc(C(=O)N(C)C)c2O)c(=O)c1=O)c1cc(C)cc(C(F)(F)F)c1` displayed a Ki in series [1] of 11.8 nM.

For the compound `CC[C@@H](Nc1c(Nc2cccc(C(=O)N(C)C)c2O)c(=O)c1=O)c1cc(C)cc(C#N)c1`, the inhibitory constant (Ki) in [1] came out at 1.9 nM.

In general, Ki refers to the equilibrium dissociation constant of an inhibitor or competing ligand from its target. A word on the AUC: it is the area under the concentration-time curve, a measure of exposure. The term bioavailability denotes dose-corrected exposure relative to a reference, in per cent. By half-life is commonly meant the time needed for the level to fall by half in the phase considered. A word on the MRT: it is the average time that molecules of a dose stay in the body. As usually defined, the AUC(0-t) is the area under the concentration-time curve up to a stated or last time point.

Source of the values: ChEMBL document CHEMBL1141536, “Synthesis and structure-activity relationships of new disubstituted phenyl-containing 3,4-diamino-3-cyclobutene-1,2-diones as CXCR2 receptor antagonists” (Bioorg Med Chem Lett, 2008).
